Measurements as given in publication PMC6272913, “Synthesis of Bioactive 2-(Arylamino)thiazolo[5,4-f]-quinazolin-9-ones via the Hügershoff Reaction or Cu- Catalyzed Intramolecular C-S Bond Formation” (Molecules, 2016).
Several values for one entry are separate records, joined by “and”; a condition that tells them apart may be missing. Equal values may be shown once. Read-outs that look alike come from different tables or passages of the source.

Assays:
[1] = target: T1, CDK5/p25 (Homo sapiens, UniProt Q00535); experiment: CDK5/p25 in vitro kinase assay (histone H1, [γ-33P] ATP); type: biochemical
T1 construct: made in house
T1 sequence (Q00535 whole entry): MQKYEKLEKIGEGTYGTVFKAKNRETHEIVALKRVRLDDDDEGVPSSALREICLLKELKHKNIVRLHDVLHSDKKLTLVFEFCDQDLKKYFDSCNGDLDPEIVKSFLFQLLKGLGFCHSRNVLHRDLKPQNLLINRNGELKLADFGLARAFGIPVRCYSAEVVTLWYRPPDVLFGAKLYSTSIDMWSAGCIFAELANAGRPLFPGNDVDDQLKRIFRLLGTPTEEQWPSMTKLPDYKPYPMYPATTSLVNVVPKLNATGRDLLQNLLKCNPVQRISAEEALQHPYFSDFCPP
T1 sequence (Q15078 99-307 partner limits assumed): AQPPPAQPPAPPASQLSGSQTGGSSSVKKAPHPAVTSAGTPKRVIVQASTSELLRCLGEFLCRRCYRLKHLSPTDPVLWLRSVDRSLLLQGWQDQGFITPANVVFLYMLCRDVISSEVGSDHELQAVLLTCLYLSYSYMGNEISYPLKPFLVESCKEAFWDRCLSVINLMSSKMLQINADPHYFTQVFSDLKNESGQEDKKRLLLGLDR

[2] = target: CK1δ/ε; experiment: CK1δ/ε in vitro kinase assay (CK1-specific peptide substrate); type: biochemical, Porcine; conditions: 15 μM ATP, 30 min at 30 °C, triplicate; >10 = less than 50% inhibition at 10 µM
[3] = target: CLK1 (Homo sapiens, UniProt P49759); experiment: CLK1 in vitro kinase assay (RS peptide); type: biochemical; conditions: 15 μM ATP, 30 min at 30 °C, triplicate; >10 = less than 50% inhibition at 10 µM
CLK1, sequence (P49759 whole entry): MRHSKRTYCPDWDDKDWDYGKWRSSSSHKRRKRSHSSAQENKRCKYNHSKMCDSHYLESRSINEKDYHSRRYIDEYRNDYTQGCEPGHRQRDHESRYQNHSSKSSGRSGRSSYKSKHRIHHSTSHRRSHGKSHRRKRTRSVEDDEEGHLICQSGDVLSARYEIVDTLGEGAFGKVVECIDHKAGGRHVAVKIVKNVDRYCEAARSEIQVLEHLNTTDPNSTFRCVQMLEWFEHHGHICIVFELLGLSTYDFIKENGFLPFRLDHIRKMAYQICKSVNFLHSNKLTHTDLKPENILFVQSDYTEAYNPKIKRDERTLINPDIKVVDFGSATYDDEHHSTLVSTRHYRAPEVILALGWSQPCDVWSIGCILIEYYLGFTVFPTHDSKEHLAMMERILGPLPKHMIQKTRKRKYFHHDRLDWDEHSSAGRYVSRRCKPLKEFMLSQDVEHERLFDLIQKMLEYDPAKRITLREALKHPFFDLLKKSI

[4] = target: DYRK1A (Rattus norvegicus, UniProt Q63470); experiment: DYRK1A in vitro kinase assay (Woodtide); type: biochemical; conditions: 15 μM ATP, 30 min at 30 °C, triplicate; >10 = less than 50% inhibition at 10 µM
[5] = target: GSK-3α/β; experiment: GSK-3α/β in vitro kinase assay (GS-1 peptide); type: biochemical, Porcine; conditions: 15 μM ATP, 30 min at 30 °C, triplicate; >10 = less than 50% inhibition at 10 µM
[6] = 15 μM ATP, 30 min at 30 °C, triplicate, >10 = less than 50% inhibition at 10 µM

Compound	IC50 [1] [µM]	IC50 [2] [µM]	IC50 [3]	IC50 [4]	IC50 [5] [µM]	IC50 [1, 6] [µM]
N/C(=N\CCN1CCOCC1)c1nc2ccc3ncn(C4CC4)c(=O)c3c2s1 [Compound 17c, (Z)-8-Cyclopropyl-N′-(2-morpholinoethyl)-9-oxo-8,9-dihydrothiazolo[5,4-f]quinazoline-2-carboximidamide]	> 10	> 10	2.3 µM	3.2 µM	2.8	
CN(C)CC/N=C(\N)c1nc2ccc3ncn(C4CC4)c(=O)c3c2s1 [Compound 17b, (Z)-8-Cyclopropyl-N′-[2-(dimethylamino)ethyl]-9-oxo-8,9-dihydrothiazolo[5,4-f]quinazoline-2-carboximidamide]	> 10	> 10	0.29 µM	4.4 µM	1.1	
O=c1c2c(ccc3nc(NCCN4CCCCC4)sc32)ncn1C1CC1 [Compound 14c, 8-Cyclopropyl-2-([2-(piperidin-1-yl)ethyl]amino)thiazolo[5,4-f]quinazolin-9(8H)-one]		> 10	> 10 µM	> 10 µM	≥ 10	> 10
N=C(NCc1ccccc1)c1nc2ccc3ncn(C4CC4)c(=O)c3c2s1 [Compound 17a, N-Benzyl-8-cyclopropyl-9-oxo-8,9-dihydrothiazolo[5,4-f]quinazoline-2-carboximidamide]	> 10	> 10	1 µM	0.67 µM	0.4	
O=c1c2c(ccc3nc(NCc4ccccc4)sc32)ncn1C1CC1 [Compound 14a, 2-(Benzylamino)-8-cyclopropylthiazolo[5,4-f]quinazolin-9(8H)-one]	> 10	> 10	3.4 µM	> 10 µM	> 10	
COc1cc2nc(Nc3ccc4ncn(C5CC5)c(=O)c4c3)sc2cc1OC [Compound 10l, 3-Cyclopropyl-6-((5,6-dimethoxybenzo[d]thiazol-2-yl)amino)quinazolin-4(3H)-one]	> 10	> 10	> 10 µM	> 10 µM	≥ 10	
COc1ccc2c(c1)[nH]c1c(C)nccc12 [Harmine, reference compound]		1.5			> 10	
O=c1c2c(ccc3nc(Nc4cccnc4)sc32)ncn1C1CC1 [Compound 8g, 8-Cyclopropyl-2-(pyridin-3-ylamino)thiazolo[5,4-f]quinazolin-9(8H)-one]	> 10	> 10	1.7 µM	> 10 µM	≥ 10	
CN(C)CCNc1nc2ccc3ncn(C4CC4)c(=O)c3c2s1 [Compound 14b, 8-Cyclopropyl-2-([2-(dimethylamino)ethyl]amino)thiazolo[5,4-f]quinazolin-9(8H)-one]	> 10	> 10	> 10 µM	> 10 µM	≥ 10	
O=c1c2cc(Nc3nc4ccccc4s3)ccc2ncn1C1CC1 [Compound 10a, 3-Cyclopropyl-6-[(benzo[d]thiazol-2-yl)amino]quinazolin-4(3H)-one]	> 10	> 10	5.2 µM	4.8 µM	≥ 10	

Next, values leading:

IC50 [1] [µM]	IC50 [2] [µM]	IC50 [3]	IC50 [4]	IC50 [5] [µM]	IC50 [1, 6] [µM]	Compound
> 10	> 10	5.3 µM	> 10 µM	≥ 10		O=c1c2c(ccc3nc(N4CCCCC4)sc32)ncn1C1CC1 [Compound 14e, 8-Cyclopropyl-2-(piperidin-1-yl)thiazolo[5,4-f]quinazolin-9(8H)-one]
> 10	> 10	8.1 µM	8.2 µM	≥ 10		O=c1c2c(ccc3nc(NCCN4CCOCC4)sc32)ncn1C1CC1 [Compound 14d, 8-Cyclopropyl-2-[(2-morpholinoethyl)amino]thiazolo[5,4-f]quinazolin-9(8H)-one]
> 10	> 10	2.1 µM	2.9 µM	3.9		N/C(=N\CCN1CCCCC1)c1nc2ccc3ncn(C4CC4)c(=O)c3c2s1 [Compound 17d, (Z)-8-Cyclopropyl-9-oxo-N′-[2-(piperidin-1-yl)ethyl]-8,9-dihydrothiazolo[5,4-f]quinazoline-2-carboximidamide]
> 10	> 10	1.3 to 7.3 µM and 1.3 µM	1.3 to 7.3 µM and 2 µM			CN(C)c1ccc(Nc2nc3ccc4ncn(C5CC5)c(=O)c4c3s2)cc1 [Compound 8j, 8-Cyclopropyl-2-([4-(dimethylamino)phenyl]amino)thiazolo[5,4-f]quinazolin-9(8H)-one]
> 10	> 10	3.4 µM	> 10 µM	≥ 10		O=c1c2c(ccc3nc(Nc4ccccc4)sc32)ncn1C1CC1 [Compound 8a, 8-Cyclopropyl-2-(phenylamino)thiazolo[5,4-f]quinazolin-9(8H)-one]
	1.9	0.38 µM	0.14 µM	0.23	> 10	N=C(c1nc2ccc3ncn(C4CC4)c(=O)c3c2s1)N1CCOCC1 [Compound 17e, 8-Cyclopropyl-2-[imino(morpholino)methyl]thiazolo[5,4-f]quinazolin-9(8H)-one]
	> 10	0.61 µM	0.82 µM	0.49	> 10	N=C(c1nc2ccc3ncn(C4CC4)c(=O)c3c2s1)N1CCCCC1 [Compound 17f, 8-Cyclopropyl-2-[imino(piperidin-1-yl)methyl]thiazolo[5,4-f]quinazolin-9(8H)-one]
	> 10	> 10 µM	> 10 µM	≥ 10	> 10	8-Cyclopropyl-2-(piperidin-1-yl)thiazolo[5,4-f]quinazolin-9(8H)-one [Compound 14f]
